Assay results taken from US11850247B2, “Antiviral compounds” (REGENTS OF THE UNIVERSITY OF MINNESOTA, priority 2020, dated 2023).

How the values were obtained:
[1] = tested on: TZM-GFP cells; assay: Cytotoxicity in TZM-GFP cells (XTT); assay type: cell-based; settings: 50 μM compound
How it was run: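 TZM-GFP cells (1×10^4 per well) exposed continuously to increasing compound concentrations for 72 hours. Viable cells measured by XTT; CC50 from log(inhibitor) vs. normalized response-variable slope fit, averaged over at least two independent duplicate experiments.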

[2] = target: covalently-crosslinked hexameric CA A14C/E45C/W184A/M185A (CA121) (Human immunodeficiency virus type 1 group M subtype B, UniProt P12493, A146C/E177C/M317A/W316A); assay: Thermal shift assay (TSA), CA hexamer stability; assay type: binding, HIV-1; settings: compound 20 μM, ΔTm=Tm−T0 vs DMSO
[3] = tested on: HIV-1; assay: Anti-HIV-1 activity in TZM-GFP cells (viral LTR-activated GFP expression); assay type: cell-based; settings: Human immunodeficiency virus 1, HIV-1 strain MOI=1, GFP positive cells counted after 48 hours
How it was run: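 TZM-GFP cells treated with increasing compound for 24 h, then infected with HIV-1 (MOI=1); EC50 based on inhibition of LTR-driven GFP expression versus DMSO controls. CC50 determined by XTT after 72 h continuous exposure in the same cells; duplicate, ≥2 independent experiments, variable-slope curve fit.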

Row | SMILES | % viability at 50 μM [1] | TSA ΔTm (° C.) [2] | EC50 [3]
1 | Cc1[nH]c2ccccc2c1CC(=O)N[C@@H](Cc1ccccc1)c1ncccc1-c1ccccc1 [Example 49, (S)-2-(2-methyl-1H-indol-3-yl)-N-(2-phenyl-1-(3-phenylpyridin-2-yl)ethyl)acetamide] | 29 ± 12% | 4.5 °C | 2.6 ± 0.4 µM
2 | O=C(Cn1cccn1)N[C@@H](Cc1ccccc1)c1ncccc1-c1ccccc1 [Example 51, (S)—N-(2-phenyl-1-(3-phenylpyridin-2-yl)ethyl)-2-(1H-pyrazol-1-yl)acetamide] | 102 ± 6% | 1.1 °C | 5.1 ± 0.7 µM
3 | Cc1[nH]c2ccccc2c1CC(=O)N[C@@H](Cc1ccccc1)c1nccn1-c1ccc(C#N)cc1 [Example 53, (S)—N-(1-(1-(4-cyanophenyl)-1H-imidazol-2-yl)-2-phenylethyl)-2-(2-methyl-1H-indol-3-yl)acetamide] | 87 ± 8% | 2.2 °C | 6.6 ± 0.4 µM
